Consider three compounds from ChEMBL document CHEMBL1158462, “Recent advances in the development of polyamine analogues as antitumor agents” (J Med Chem, 2009).

Structures are written as SMILES.

The test system of one assay is NCI-H69. Put plainly: Antitumor activity against human H69 cells. Format: functional, cell-based.
The test system of assay [1] is A549. Put plainly: Antitumor activity against human A549 cells xenografted nu/nu Fox Chase mouse assessed as reduction in tumor growth at 125 mg/kg. More on the design: scale not given: the % may be the effect or the level left. Format: functional. A general note: A xenograft is tissue or cells of one species grown in another, often human tumour cells in immunodeficient mice.

A further assay relates to NCI-H157. Put plainly: Antitumor activity against human NCI-H157 cells by MTT assay. Format: functional, cell-based.
Assay [2] has as its system A549. Put plainly: Antitumor activity against human A549 cells xenografted nu/nu Fox Chase mouse assessed as reduction in tumor growth at 75 mg/kg. In kind it is functional. Details: scale not given: the % may be the effect or the level left.
In assay [3] the test system is A549. Put plainly: Antitumor activity against human A549 cells. Format: functional, cell-based.
Assay [4] is described as follows: Antitumor activity against human H82 cells. Format: functional, cell-based. The settings on record: NCI-H82.
The subject of assay [5] is RKO. Put plainly: Induction of SFRP4 expression in human RKO cells at 1 uM. In kind it is functional.
Assay [6] has as its system RKO. Put plainly: Induction of H3K4me2 expression in human RKO cells at 1 uM. Format: functional.
For assay [7], the target named is Lysine-specific histone demethylase 1A (Homo sapiens) (UniProt O60341). Particulars: 1 uM.
Description: Inhibition of LSD1 at 1 uM
Assay [8] deals with RKO. Put plainly: Induction of SFRP5 expression in human RKO cells at 1 uM. Format: functional.
For the next assay, the system named is MDA-MB-468. Put plainly: Antitumor activity against human MDA-MB-468 cells. Format: functional, cell-based.
The subject of a further assay is T47D. Put plainly: Antitumor activity against human T47D cells. In kind it is functional, cell-based.
The next assay relates to ZR-75-1. Put plainly: Antitumor activity against human ZR-75-1 cells. Format: functional, cell-based.
For a further assay, the system named is MCF7. Put plainly: cells. Format: functional, cell-based. The settings on record: Homo sapiens.
A short description of assay [9]: Antitumor activity against human Hs 578T cells. Format: functional, cell-based.

Description for MCF7: Antitumor activity against human MCF7 cells

Turning to `CCNCCCNCCCNCCCNC[C@H](C)CO`, the IC50 – broadly, the concentration that inhibits the measured activity by half – in the assay with NCI-H69 stood at 0.7 µM; with NCI-H157 it was 2.2 µM; with A549 [3] it was 0.7 µM; in assay [4], 0.7 µM. Besides, the Activity with A549 [1] and in the assay with A549 [2] was 65% throughout.
In the case of `N=C(NCCCNCCCCCCCNCCCNC(=N)NC(=N)NCCC(c1ccccc1)c1ccccc1)NC(=N)NCCC(c1ccccc1)c1ccccc1`, the Activity in the assay on RKO [5], with RKO [6] and in the assay with RKO [8] was 20% each time. The inhibition (commonly how much of the control response was suppressed) in [7] was 90.9%.
`CCNCCCNCCCNCCCNCC1CC1`: the half-inhibitory concentration (IC50) (with MDA-MB-468; in the assay on T47D; in the assay with ZR-75-1; with NCI-H157; in the assay on MCF7; in assay [9]) was 0.2 µM in each case.
